Key:
[1] = test system: U46619-induced bronchoconstriction; experiment: Bronchodilatation - In vivo (inhibition of U46619-induced bronchoconstriction in anaesthetised guinea-pigs); design: species or system guinea-pig (Dunkin Hartley strain, male); conditions: Cavia porcellus, iv; i.v. bolus; U46619 infused i.v. 2.5 nmol/min; peak inhibition; read-out: BD50 (dose of compound required to reduce the U46619-induced bronchoconstriction by 50%)
Experimental: Male guinea-pigs of the Dunkin Hartley strain (500-600g) were anaesthetised with Sagatal (pentobarbital sodium) (60 mg/kg). Airway resistance was measured using a modification of the classical Konzett-Rossler technique (J. pharm. Methods, 13, 309-315, 1985). U46619 (9,11-methanoepoxy-PGH2) was infused i.v. at a rate of 2.5 nmol/min, this produced a steady state of bronchoconstriction (approximately 120% increase from basal airway resistance). The compound under test was administered by i.v. bolus injection, and the subsequent peak inhibition of bronchoconstriction recorded.

[2] = test system: spontaneous colonic activity (distal colon segment); experiment: Inhibition of spontaneous colonic activity - in vitro; design: species or system guinea-pig (male albino); conditions: Cavia porcellus; isolated distal colon, Krebs solution, 37° C.; read-out: IC50 (concentration of compound required to reduce spontaneous colonic activity by 50%)
Source text: Male albino guinea-pigs (300-400g) were killed by a blow to the back of the head and exsanguinated. A 2cm long segment of the proximal part of the hypogastric loop of the distal colon was rapidly dissected out and placed in oxygenated (95% O2, 5% CO2) modified warm Krebs solution. The tissue was cleaned out with Krebs and the adjoining mesentery discarded. Cotton was then tied to each end and the colon was attached to a tissue holder in an organ bath containing modified oxygenated Krebs solution at 37° C. The other end of the tissue was tied to an isometric transducer and placed under 1 g tension. Force developed by the muscle was detected by the transducer, and recorded on a multitrace pen recorder. Spontaneous colonic activity, as assessed by the contraction distance over a five minute period, was subjected to computer analysis.
The tissues were allowed to settle at a resting tension of 1 g for 1 hour, during which time they were washed at 15 minute intervals. Three samples of pre-dose activity were taken and averaged. The tissues were then dosed and two samples of post-dose activity were taken. The lowest value was used to calculate the percentage relaxation, and log dose response curves were constructed. The tissues were washed 10 minutes after dosing and left for 15 minutes to settle prior to the next control period.
The concentration of compound required to reduce spontaneous colonic activity by 50% is given as the IC50.

SMILES	ED50 [1] [µmol/kg]	IC50 [2] [µM]
CCCOc1ccccc1-c1nc(O)cc(CC)n1 [Example 18, 4-Ethyl-6-hydroxy-2-(2-propoxyphenyl)pyrimidine]	9.7	3.3
CCCOc1ccccc1-c1nc(NC(=O)NC)cc(=O)[nH]1 [Example 5, 6-N'-methylureido-2-(2-propoxyphenyl)pyrimidin-4[3H]-one]	8.34	2.4
CCCOc1ccccc1-c1nc(O)cc(C#N)n1 [Example 16, 4-cyano-6-hydroxy-2-(2-propoxyphenyl)pyrimidine]	6.03	
CCCOc1ccccc1-c1nc(O)cc(C(N)=O)n1 [Example 15, 6-Hydroxy-2-(2-propoxyphenyl)pyrimidine-4-carboxamide]		0.75
CCCOc1ccccc1-c1nc(O)cc(C(=O)NCC)n1 [Example 21, N-Ethyl 6-hydroxy-2-(2-propoxyphenyl)pyrimidine-4-carboxamide]		3.7

From US5118686A, “Phenylpyrimidones” (Smith Kline & French Laboratories Limited, priority 1989, dated 1992)
